Read-outs that look alike come from different tables or passages of the source.

The test system of one assay is HCV genotype 1b replicon. The assay can be described thus: HCV replicon assay, genotype 1b replicon EC50. The format is cell-based, Hepatitis C virus. The conditions noted are these: Hepatitis C virus, read-out: EC50 [gt-1b]. The essentials: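 Potency comes from a four-parameter fit of signal as percent of DMSO control. Replicon-bearing cells were treated 24-48 hours with a compound dilution series in absence of G418, and replicon RNA was quantified normalized to cyclophilin A RNA, or luciferase read.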

Assay [1] has as its target HCV NS3/4A protease genotype 1b (Hepatitis C virus genotype 1b, UniProt P26663). As to the kind of experiment: HCV NS3/4A protease time-resolved fluorescence (TRF) assay, Ki against genotype 1b. The assay is classed as biochemical. The essentials:
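Time-resolved fluorescence readout of NS3/4A cleavage of 25 nM europium-labelled peptide over 2.5 h at room temperature, enzyme levels set for signal/background 10–30 (0.2, 0.4, 0.025 nM for 1b, A156T, 3a). Ki by IC50=Ki(1+[S]/KM).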

The mark [2] stands for this setting: IC50 [gt-1b] (nM), NS3/4A genotype 1b, enzyme 0.2 nM.
[3] abbreviates: IC50 [gt-1b], NS3/4A protease TRF assay, genotype 1b enzyme 0.2 nM.
Setting [4] is: genotype 1b replicon, HCOOH salt.
[5] abbreviates: IC50 [gt-1b] (nM), NS3/4A genotype 1b, enzyme 0.2 nM, HCOOH salt.

As to `CCc1ccc2nc(C)c3c(c2c1)CC[C@]1(C[C@H]2C(=O)N[C@]4(C(=O)NS(=O)(=O)C5(C)CC5)C[C@H]4/C=C\CCCCC[C@H](NC(=O)OC(C)(C)C(F)(F)F)C(=O)N2C1)O3` [Example 314, 1,1,1-trifluoro-2-methylpropan-2-yl [(2R,6S,12Z,13aS,14aR,16aS)-9′-ethyl-5′-methyl-14a-{[(1-methylcyclopropyl)sulfonyl]carbamoyl}-5,16-dioxo-1,1′,2′,5,6,7,8,9,10,11,13a,14,14a,15,16,16a-hexadecahydrospiro[cyclopropa[e]pyrrolo[1,2-a][1,4]diazacyclopentadecine-2,3′-pyrano[2,3-c]quinolin]-6-yl]carbamate], the EC50 (in general, the concentration needed to bring the measured effect to its halfway point) in the assay with HCV genotype 1b replicon (genotype 1b replicon) amounted to 8.74 nM. Besides, inhibition in assay [1] (setting [2]) was half-maximal at 0.013 nM (IC50).

Turning to `CC(C)(C)OC(=O)N[C@H]1CCCCC/C=C\[C@@H]2C[C@@]2(C(=O)NS(=O)(=O)C2(C)CC2)NC(=O)[C@@H]2C[C@]3(CCc4c(c(C(F)(F)F)nc5ccc(OCCO)cc45)O3)CN2C1=O` [Example 60, tert-Butyl ((2R,6S,13aS,14aR,16aS,Z)-9′-(2-hydroxyethoxy)-14a-(((1-methylcyclopropyl)sulfonyl)carbamoyl)-5,16-dioxo-5′-(trifluoromethyl)-1′,2′,3,5,6,7,8,9,10,11,13a, 14,14a,15,16,16a-hexadecahydro-1H-spiro[cyclopropa[e]pyrrolo[1,2-a][1,4]diazacyclopentadecine-2,3′-pyrano[2,3-c]quinolin]-6-yl)carbamate], the EC50 with HCV genotype 1b replicon (genotype 1b replicon) came to 1.23 nM. For the same compound, half-maximal inhibition in assay [1] (setting [2]) (IC50) required 0.009 nM.

In the case of `COc1ccc2nc(C(C)C)c3c(c2c1)[C@H](F)C[C@]1(C[C@H]2C(=O)N[C@]4(C(=O)NS(=O)(=O)C5(C)CC5)C[C@H]4/C=C\CCCCC[C@H](NC(=O)OC(C)(C)C(F)(F)F)C(=O)N2C1)O3` [Example 352, 1,1,1-trifluoro-2-methylpropan-2-yl [(1′R,2S,6S,12Z,13aS,14aR,16aS)-1′-fluoro-9′-methoxy-14a-{[(1-methylcyclopropyl)sulfonyl]carbamoyl}-5,16-dioxo-5′-(propan-2-yl)-1,1′,2′,5,6,7,8,9,10,11,13a,14,14a,15,16,16a-hexadecahydrospiro[cyclopropa[e]pyrrolo[1,2-a][1,4]diazacyclopentadecine-2,3′-pyrano[2,3-c]quinolin]-6-yl]carbamate], the EC50 in the assay with HCV genotype 1b replicon (genotype 1b replicon, K+ salt) was 1.45 nM. Moreover, in assay [1] (IC50 [gt-1b] (nM), NS3/4A genotype 1b, enzyme 0.2 nM, K+ salt), the IC50 – broadly, the concentration that gives 50% inhibition – is 0.042 nM.

For the compound `Cc1nc2ccccc2c2c1O[C@]1(CC2)C[C@H]2C(=O)N[C@]3(C(=O)NS(=O)(=O)C4(C)CC4)C[C@H]3/C=C\CCCCC[C@H](Nc3ncccn3)C(=O)N2C1` [Example 359, (2R,6S,12Z,13aS,14aR,16aS)-5′-methyl-N-[(1-methylcyclopropyl)sulfonyl]-5,16-dioxo-6-(pyrimidin-2-ylamino)-1,1′,2′,6,7,8,9,10,11,13a,14,15,16,16a-tetradecahydrospiro[cyclopropa[e]pyrrolo[1,2-a][1,4]diazacyclopentadecine-2,3′-pyrano[2,3-c]quinoline]-14a(5H)-carboxamide], the EC50 with HCV genotype 1b replicon (HCV replicon, genotype 1b) was determined as 205 nM. This compound also returned an IC50 in assay [1] (setting [3]) of 0.4 nM.

On to `Cc1nc2ccccc2c2c1O[C@]1(CC2)C[C@H]2C(=O)N[C@]3(C(=O)NS(=O)(=O)C4(C)CC4)C[C@H]3/C=C\CCCCC[C@H](NC(=O)N3CCCCC3)C(=O)N2C1` [Example 290, (2R,6S,12Z,13aS,14aR,16aS)-5′-methyl-N-[(1-methylcyclopropyl)sulfonyl]-5,16-dioxo-6-[(piperidin-1-ylcarbonyl)amino]-1,1′,2′,6,7,8,9,10,11,13a,14,15,16,16a-tetradecahydrospiro[cyclopropa[e]pyrrolo[1,2-a][1,4]diazacyclopentadecine-2,3′-pyrano[2,3-c]quinoline]-14a(5H)-carboxamide], for which the EC50 in the assay with HCV genotype 1b replicon (setting [4]) is 7.02 nM. For the same compound, the IC50 in assay [1] (setting [5]) stood at 0.017 nM.

For `COc1ccc2nc(C(C)C)c3c(c2c1)[C@H](F)C[C@]1(C[C@H]2C(=O)N[C@]4(C(=O)NS(=O)(=O)C5(C)CC5)C[C@H]4/C=C\CCCCC[C@H](NC(=O)OCC(C)(C)C)C(=O)N2C1)O3` [Example 388, 2,2-dimethylpropyl [(1′R,2S,6S,12Z,13aS,14aR,16aS)-1′-fluoro-9′-methoxy-14a-{[(1-methylcyclopropyl)sulfonyl]carbamoyl}-5,16-dioxo-5′-(propan-2-yl)-1,1′,2′,5,6,7,8,9,10,11,13a,14,14a,15,16,16a-hexadecahydrospiro[cyclopropa[e]pyrrolo[1,2-a][1,4]diazacyclopentadecine-2,3′-pyrano[2,3-c]quinolin]-6-yl]carbamate], in the assay on HCV genotype 1b replicon (HCV replicon, genotype 1b), the EC50 stood at 1.31 nM. Moreover, the IC50 in assay [1] (setting [3]) is 0.028 nM.

`Cc1nc2cc(F)ccc2c2c1OC1(CC2F)C[C@H]2C(=O)N[C@]3(C(=O)NS(=O)(=O)C4(C)CC4)C[C@H]3/C=C\CCCCC[C@H](NC(=O)OC(C)(C)C)C(=O)N2C1` (stereo partly drawn) [Example 464, tert-butyl [(6S,12Z,13aS,14aR,16aS)-1′,8′-difluoro-5′-methyl-14a-{[(1-methylcyclopropyl)sulfonyl]carbamoyl}-5,16-dioxo-1,1′,2′,5,6,7,8,9,10,11,13a,14,14a,15,16,16a-hexadecahydrospiro[cyclopropa[e]pyrrolo[1,2-a][1,4]diazacyclopentadecine-2,3′-pyrano[2,3-c]quinolin]-6-yl]carbamate]: the EC50 with HCV genotype 1b replicon (HCV replicon, genotype 1b) turned out to be 15 nM. The midpoint of inhibition in assay [1] (setting [3]), the IC50, lay at 1.03 nM.

Regarding `Cc1nc2ccccc2c2c1O[C@]1(CC2)C[C@H]2C(=O)N[C@]3(C(=O)NS(=O)(=O)C4(C)CC4)C[C@H]3/C=C\CCCCC[C@H](NC(=O)N3CCOCC3)C(=O)N2C1` [Example 291, (2R,6S,12Z,13aS,14aR,16aS)-5′-methyl-N-[(1-methylcyclopropyl)sulfonyl]-6-[(morpholin-4-ylcarbonyl)amino]-5,16-dioxo-1,1′,2′,6,7,8,9,10,11,13a,14,15,16,16a-tetradecahydrospiro[cyclopropa[e]pyrrolo[1,2-a][1,4]diazacyclopentadecine-2,3′-pyrano[2,3-c]quinoline]-14a(5R)-carboxamide], the EC50 in the assay on HCV genotype 1b replicon (setting [4]) was 84.6 nM. In addition, in assay [1] (setting [5]), the IC50 came to 0.032 nM.

As to `COc1ccc2nc(C)c3c(c2n1)CC[C@]1(C[C@H]2C(=O)N[C@]4(C(=O)NS(=O)(=O)C5(C)CC5)C[C@H]4/C=C\CCCCC[C@H](NC(=O)OC(C)(C)C)C(=O)N2C1)O3` [Example 11, tert-butyl (2R,6S,13aS,14aR,16aS,Z)-2′-methoxy-6′-methyl-14a-(1-methylcyclopropylsulfonylcarbamoyl)-5,16-dioxo-3,5,6,7,8,9,9′,10,10′,11,13a,14,14a,15,16,16a-hexadecahydro-1H-spiro[cyclopropa[e]pyrrolo[1,2-a][1,4]diazacyclopentadecine-2,8′-pyrano[2,3-c][1,5]naphthyridine]-6-ylcarbamate], the EC50 with HCV genotype 1b replicon (genotype 1b replicon) was determined as 2.71 nM. This compound also registered an IC50 in assay [1] (setting [2]) of 0.007 nM.

As to `Cc1nc2c(C(F)(F)F)cccc2c2c1O[C@]1(CC2)C[C@H]2C(=O)N[C@]3(C(=O)NS(=O)(=O)C4(C)CC4)C[C@H]3/C=C\CCCCC[C@H](NC(=O)OC(C)(C)C)C(=O)N2C1` [Example 44, tert-Butyl (1aR,3aS,3′R,9S,16aS,Z)-5′-methyl-1a-(1-methylcyclopropylsulfonylcarbamoyl)-3,8-dioxo-7′-(trifluoromethyl)-1a,1′,2,2′,3,3a,4,6,8,9,10,11,12,13,14,16a-hexadecahydro-1H-spiro[cyclopropa[e]pyrrolo[1,2-a][1,4]diazacyclopentadecine-5,3′-pyrano[2,3-c]quinoline]-9-ylcarbamate], the EC50 in the assay on HCV genotype 1b replicon (genotype 1b replicon) was 1.6 nM. In addition, half-maximal inhibition in assay [1] (setting [2]) (IC50) required 0.104 nM.

`CC1(OC(=O)N[C@H]2CCCCC/C=C\[C@@H]3C[C@@]3(C(=O)NS(=O)(=O)C3(C)CC3)NC(=O)[C@@H]3C[C@]4(CCc5c(c(C(F)(F)F)nc6ccccc56)O4)CN3C2=O)CC1` [Example 159, 1-methylcyclopropyl [(2R,6S,12Z,13aS,14aR,16aS)-14a-{[(1-methylcyclopropyl)sulfonyl]carbamoyl}-5,16-dioxo-5′-(trifluoromethyl)-1,1′,2′,5,6,7,8,9,10,11,13a,14,14a,15,16,16a-hexadecahydrospiro[cyclopropa[e]pyrrolo[1,2-a][1,4]diazacyclopentadecine-2,3′-pyrano[2,3-c]quinolin]-6-yl]carbamate]: the EC50 in the assay on HCV genotype 1b replicon (genotype 1b replicon) was found to be 1.19 nM. For the same compound, inhibition in assay [1] (setting [2]) was half-maximal at 0.013 nM (IC50).

With `COCC1(S(=O)(=O)NC(=O)[C@@]23C[C@H]2/C=C\CCCCC[C@H](NC(=O)C2CCC(=O)N(C)C2)C(=O)N2C[C@@]4(CCc5c(c(C(F)(F)F)nc6ccc(OC)cc56)O4)C[C@H]2C(=O)N3)CC1` (stereo partly drawn) [Example 500, (2R,6S,12Z,13aS,14aR,16aS)-9′-methoxy-N-{[1-(methoxymethyl)cyclopropyl]sulfonyl}-6-{[(1-methyl-6-oxopiperidin-3-yl)carbonyl]amino}-5,16-dioxo-5′-(trifluoromethyl)-1,1′,2′,6,7,8,9,10,11,13a,14,15,16,16a-tetradecahydrospiro[cyclopropa[e]pyrrolo[1,2-a][1,4]diazacyclopentadecine-2,3′-pyrano[2,3-c]quinoline]-14a(5H)-carboxamide], the EC50 in the assay on HCV genotype 1b replicon (HCV replicon, genotype 1b) came out at 435 nM. Also, in assay [1] (setting [3]), the midpoint of inhibition, the IC50, lay at 0.014 nM.

(Values after patent US8987195B2 (priority 2012, dated 2015).)
